Assay: Cell Surface Biotinylation Assay: Huh7.5.1 cells from four 150 mm plates were treated with DMSO, Roc-A (20 nM), or infected by HCVcc. 48 h post-transfection, cells were washed three times with ice-cold PBS and resuspended in PBS at a density of 25×10^6 cells/ml. Freshly prepared Sulfo-NHS-SS-biotin (Pierce) was added to the cells (final concentration […]) and allowed to incubate at 4° C. for 30 min. Cells were then washed three times with ice-cold PBS. 25 mM Tris (pH 8.0) was added in the initial wash to quench any non-reacted biotin reagent. Following cell lysis in RIPA buffer (50 mM Tris-HCl [pH 7.5], 150 mM NaCl, 1% NP-40, 0.25% sodium deoxycholate, 1 mM EDTA, 2 mM Na3VO4 and Pierce protease inhibitor cocktail), lysates were cleared by centrifugation at 13,000×g for 15 min at 4° C. The cleared lysates were used for immunoprecipitation using a 1:1 mixture of Streptavidin beads (Pierce). Beads were washed three times with RIPA buffer, and bound proteins were eluted by boiling the samples in SDS-PAGE sample buffer and then resolved on 9% SDS-PAGE. Biotinylated proteins were detected by anti-PHB1 and anti-PHB2 antibodies.
Conditions: Huh-7.5.1

For `COc1ccc([C@@]23Oc4cc(OC)cc(OC)c4[C@]2(O)c2nc4n(c(=O)c2[C@H]3c2ccccc2)CCC4)cc1` (racemic), which EC50 is on record?
The EC50 was 0.1 µM.
